Experimental data reported in US12121606B2, “Methods and compositions for improving skin” (L'OREAL, priority 2021, dated 2024).

System: in vitro skin samples (EPISKIN)
Experiment: In vitro skin samples after fractional laser procedure, wound healing by OCT imaging
Assay type: cell-based
Conditions: application after the fractional laser procedure
Experimental: The benefits of applying the Composition 4 to skin after a procedure that reduces the barrier function of skin was evaluated in vitro using samples generated by the EPISKIN™ group. Composition 4 comprised 0.5 wt. % of acetyl trifluoromethylphenyl valylglycine and 2 wt. % ethanol with the remainder being water, with all weight percentages based on the total weight of the formulation. A comparative composition (Comparative Composition A) containing transforming growth factor alpha (“TGF-α”) was also evaluated as a comparison to the Composition 4.
Specifically, a fractional laser procedure that is typical of laser resurfacing procedures was applied to the in vitro skin samples. The in vitro skin samples were characterized using non-invasive imaging analysis to determine the wound morphology of the in vitro skin samples. The kinetics and quantification of wound healing after the laser treatment was evaluated using optical coherence tomography (OCT). The optical measurements were performed at seven time points over the culture period. This was achieved using an OCT system produced by Thorlabs (Newton, N.J., USA) with an axial resolution of 8 μm.
Composition 4 and Comparative Composition A were applied by adding 10 uL onto in vitro skin samples after the fractional laser procedure. […]

SMILES: CC(=O)N(c1cccc(C(F)(F)F)c1)C(C(=O)NCC(=O)O)C(C)C (stereo not shown) [acetyl trifluoromethylphenyl valylglycine]
- regeneration of the epidermis: enhanced regeneration of the epidermis
